Test results taken from patent US9193744B2, “Heterocyclic nuclear hormone receptor modulators” (AbbVie Inc., priority 2012, dated 2015).

Experiments:
[1] = biological target: T1, Glucocorticoid Receptor (GR) (Homo sapiens, UniProt P04150); assay: GR Fluorescence Polarization Assay (PolarScreen Glucocorticoid Receptor Competitor Assay, Red); details: fluorescence polarization binding ranges
T1 construct: purchased Invitrogen P2893
T1 sequence (P04150 1-777): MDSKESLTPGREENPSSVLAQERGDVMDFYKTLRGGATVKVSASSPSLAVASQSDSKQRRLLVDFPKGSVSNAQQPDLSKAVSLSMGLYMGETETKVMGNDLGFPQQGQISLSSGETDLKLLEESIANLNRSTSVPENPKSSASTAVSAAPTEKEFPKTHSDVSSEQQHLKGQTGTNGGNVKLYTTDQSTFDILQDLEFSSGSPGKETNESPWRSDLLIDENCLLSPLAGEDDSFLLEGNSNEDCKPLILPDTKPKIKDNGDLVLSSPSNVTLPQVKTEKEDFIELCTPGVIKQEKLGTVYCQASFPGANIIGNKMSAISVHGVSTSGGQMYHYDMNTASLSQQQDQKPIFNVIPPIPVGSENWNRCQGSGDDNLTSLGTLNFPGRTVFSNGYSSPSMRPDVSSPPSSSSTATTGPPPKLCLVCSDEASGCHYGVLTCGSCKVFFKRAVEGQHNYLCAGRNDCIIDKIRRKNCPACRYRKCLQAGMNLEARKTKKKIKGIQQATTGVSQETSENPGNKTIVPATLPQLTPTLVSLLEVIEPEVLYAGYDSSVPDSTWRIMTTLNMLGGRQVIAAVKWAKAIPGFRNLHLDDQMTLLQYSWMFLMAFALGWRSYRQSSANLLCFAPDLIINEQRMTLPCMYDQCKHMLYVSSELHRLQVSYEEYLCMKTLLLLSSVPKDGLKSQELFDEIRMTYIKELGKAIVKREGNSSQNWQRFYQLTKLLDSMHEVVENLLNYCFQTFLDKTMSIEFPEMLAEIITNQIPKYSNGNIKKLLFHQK
In short: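 Compound displacement of a red-labelled glucocorticoid from GR, read as fluorescence polarization. Tracer, receptor and 1:4-serially diluted compound were left together overnight at 4° C in the kit assay buffer.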

[2] = tested on: IL-6; assay: A549 Cell Assay to Measure Inflammation Markers (inhibition of IL-1β-induced IL-6); format: cell-based; details: Homo sapiens; A549 cells; read-out: A549 cell assay
In short: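 A549 cells pre-incubated 1 h with compound (10-point dilution, 0.1% DMSO final) in charcoal-stripped serum medium, then stimulated 4 h with 1 ng/mL IL-1β at 37° C. Supernatant IL-6 measured by MSD immunoassay; IC50 and Emax relative to 1 μM prednisolone as 100% inhibition; viability checked by CellTiter-Glo.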

[3] = tested on: OCN; assay: MG-63 Cell Assay to Measure Bone Markers (inhibition of Vitamin K/Vitamin D-induced OCN); format: cell-based; details: Homo sapiens, MG63 cells
Method: MG-63 Cell Assay to Measure Bone Markers
MG-63 cells were cultured in culture media containing ascorbic acid (DMEM/F12 supplemented with 10% FBS, 1% HEPES, 100 U/mL-100 μg/mL Pen-Strep, and 100 μg/mL of ascorbic acid) for, minimally, 1 week before study. MG-63 cells were seeded (4E4 cells/well) in 96-well assay plates in culture medium (200 μL/well.) After overnight culture in an incubator set to 37° C., 4.9% CO2, and 90% humidity, media was removed from adherent cells by aspiration and replaced with 100 μL/well assay medium, DMEM/F12 supplemented with 5% Charcoal Stripped Serum, 1% HEPES, 100 U/mL-100 μg/mL Pen-Strep, and 100 μg/mL of ascorbic acid. Compounds were prepared with DMSO and serial diluted (1:3, 1:4, or 1:5) with DMSO in dilution plate(s) to give 10 dilution points for each compound tested. Further dilution (1:250) of compound was made into assay medium and 50 μL/well diluted drug or DMSO/media control was applied to cells. After a 1 h pre-incubation in a temperature, CO2, and humidity controlled incubator, set to 37° C., 50 μL/well of 40 nM Vitamin K and 400 nM Vitamin D that were diluted in assay media were applied to plates. Assay plates, with a final volume of 200 μL/well and final concentrations of 0.1% DMSO, 10 nM Vitamin K, and 100 nM Vitamin D, were returned to incubator for overnight culture. Next, plates were spun at 183 g (1000 rpm in Beckman/Coulter Allegra 6KR centrifuge) for 10 min. Cell-free supenatant (150 μL/well) was collected and OCN was measured by MSD kit, following protocol of manufacturer, and using MSD SECTOR Imager 6000 instrument. Potency of drug to inhibit OCN was determined using the percent reduction of measured OCN in wells with drug compared to control wells without drug, and relative to (100% inhibition) positive control sample of 10 μM prednisolone. Results were represented as IC50 and Emax values. To verify that viable cell numbers were similar across plate(s), and not confounding compound IC50 data interpretation, the remaining 50 μL/well of cells and media (after removal of supernatant) were used to run Cell Titer-Glo Assay per directions of manufacturer.

Structure (SMILES)	IC50 [1] [nM]	IC50 [2] [nM]	IC50 [3] [nM]
CC[C@@]12CC[C@@](O)(C(F)(F)F)C[C@@H]1CCCc1cc3c(cnn3-c3ccc(F)cc3)cc12 (single isomer, unassigned) [Example 3]	< 100	< 100	100 to 1000
COC[C@@]1(O)CC[C@@]2(Cc3ccccn3)c3cc4cnn(-c5ccc(F)cc5)c4cc3CCC[C@H]2C1 (racemic) [Example 11]	< 100	< 100	< 100
CC[C@@]12CC[C@@](O)(C(F)(F)F)C[C@@H]1CCCc1cc3c(cnn3-c3ccc(F)cc3)cc12 (racemic) [Example 1, (3S,4aS,12bR)-12b-Ethyl-9-(4-fluoro-phenyl)-3-trifluoromethyl-1,2,3,4,4a, 5,6,7,9,12b-decahydro-9,10-diaza-benzo[3,4]cyclohepta[1,2-f]inden-3-ol; compound with (3R,4aR,12bS)-12b-ethyl-9-(4-fluoro-phenyl)-3-trifluoromethyl-1,2,3,4,4a,5,6,7,9,12b-decahydro-9,10-diaza-benzo[3,4]cyclohepta[1,2-f]inden-3-ol]	< 100	< 100	< 100
CCC[C@]1(O)CC[C@@]2(CC)c3cc4cnn(-c5ccc(F)cc5)c4cc3CCC[C@@H]2C1 (single isomer, unassigned) [Example 5]	< 100	100 to 1000	> 10000

Now from value to compound:

IC50 [1] [nM]	IC50 [2] [nM]	IC50 [3] [nM]	Structure (SMILES)
< 100	< 100	< 100	COC[C@@]1(O)CC[C@@]2(Cc3ccccn3)c3cc4cnn(-c5ccc(F)cc5)c4cc3CCC[C@H]2C1 (single isomer, unassigned) [Example 12]
< 100	< 100	< 100	COC[C@]1(O)CC[C@]2(Cc3ccccn3)c3cc4cnn(-c5ccc(F)cc5)c4cc3CCC[C@@H]2C1 (single isomer, unassigned) [Example 13]
< 100	> 10000	> 10000	CC[C@@]12CC[C@](O)(COC)C[C@@H]1CCCc1cc3[nH]ncc3cc12 (racemic) [Example 14, (3R,4aS,12bR)-12b-Ethyl-3-methoxymethyl-1,2,3,4,4a,5,6,7,9,12b-decahydro-9,10-diaza-benzo[3,4]cyclohepta[1,2-f]inden-3-ol; compound with (3S,4aR,12bS)-12b-ethyl-3-methoxymethyl-1,2,3,4,4a,5,6,7,9,12b-decahydro-9,10-diaza-benzo[3,4]cyclohepta[1,2-f]inden-3-ol]
